Test results reported in article PMC5634784, “Clearance of beta-amyloid is facilitated by apolipoprotein E and circulating high-density lipoproteins in bioengineered human vessels” (eLife, 2017).

Tests used:
Assay type in all cases: cell-based, human
[1] = tested on: endothelial barrier of bioengineered vessels; test: Endothelium integrity: Evans blue extravasation; conditions: 0.5% in circulation loop 10 min, PBS wash 20 min
Description: Evans blue (Sigma-Aldrich) was injected at a final concentration of 0.5% in the circulation loop of the bioreactor for 10 min followed by continuous PBS washing for 20 min. Vessels were cut open longitudinally and en face preparations were analysed macroscopically with photo documentation. Restriction of paracellular transport was determined by measuring FITC dextran extravasation to the tissue chamber as described ([Gaillard et al., 2001]). […] After 1 hr tissue media was collected, fluorescent was read at RT on an EnSpire 2300 Multilabel Plate Reader (492Ex/518Em) and the permeability coefficient (Papp) was calculated using the following equation: Papp=(dQ/dt)*(1/A*C0*60) where dQ/dt is the amount of FITC-dextran transported per minute (ng/min), A is the surface area of the tissue (cm [[Attems and Jellinger, 2014]]), C0 is the initial concentration of FITC-Dextran (ng/ml) and 60 is the conversion from minutes to seconds.

[2] = tested on: bioengineered tripartite vessels; test: Aβ accumulation in tripartite bioengineered cerebral vessels (ELISA); conditions: GW3965 0.8 μM 72 hr, HDL 200 μg/ml luminal
Description: Bioengineered constructs were fabricated using a dynamic, semi-pulsatile flow bioreactor system. Tubular biodegradable scaffolds (length 1.5 cm and inner diameter 2 mm) were produced as described ([Robert et al., 2013a]; [Robert et al., 2017]) with minor modifications. Briefly, non-woven polyglycolic acid (PGA, Biomedical Structure, Warwick, RI) meshes (thickness: 1 mm and density: 70 mg/cc) were dip-coated with polycaprolactone (PCL) and polylactate (PLA) by dipping PGA mesh in a solution of 1.75% (w/w) PCL/PLA/tetrahydrofuran (THF) solution (Sigma-Aldrich, St. Louis, MO), shaped into tubes using heat, and externally coated with a 10% PCL/THF (w/w) solution. Scaffolds were sterilized by immersion in 70% ethanol for 30 min followed by three PBS washes and then immersion in advanced DMEM supplemented with 10% FBS for at least 12 hr. […]
All experiments were conducted under an approved clinical protocol (UBC Clinical Ethics Research Board H14-03357). […] Total protein concentration was assessed using the BCA assay (Thermofisher Scientific). […] ApoE concentrations were measured using ELISA as previously described ([Fan et al., 2016]). […]

[3] = tested on: apoE secretion by astrocytes; test: Native apoE secretion by astrocytes in tripartite vessels (ELISA); conditions: astrocytes APOE3/E3, GW3965 1 μM circulated through lumen 72 hr
Description: All experiments were conducted under an approved clinical protocol (UBC Clinical Ethics Research Board H14-03357). Upon receipt of written informed consent, 100 ml of fasted blood was collected from normolipidemic healthy donors into vacutainer tubes containing EDTA. Plasma HDL (1.063-1.21 g/ml) was isolated by sequential potassium bromide gradient ultracentrifugation as described ([Robert et al., 2013b]). The purity of the HDL preparations was verified by sodium dodecyl sulfate-polyacrylamide gel electrophoresis (SDS-PAGE) followed by Coomassie blue staining to ensure no LDL or albumin contamination (not shown). Total protein concentration was assessed using the BCA assay (Thermofisher Scientific). Recombinant apoE2 and apoE4 were commercially purchased and solubilized following the manufacture's instructions (ABCAM, apoE2 ab55210, apoE3 ab123764 and apoE4 ab50243). […] ApoE concentrations were measured using ELISA as previously described ([Fan et al., 2016]). Briefly, ELISA plates were coated overnight with anti-human apoE mAB […] antibody (MabTech, Cincinnati, OH, RRID: AB_1925746) at 1.55 μg/mL in PBS at 4°C, washed two times with PBST (0.05% Tween 20 in PBS), and blocked with 0.1% Blocker A (MesoScale Discovery, Rockville, MA) in PBST. […] Fluorescence was read after 15 min at RT on an EnSpire 2300 Multilabel Plate Reader (325Ex/420Em).

[4] = tested on: bioengineered tripartite vessels; test: Aβ transport across tripartite bioengineered cerebral vessels (ELISA); conditions: for transport of fibrils compared to monomers: tripartite vessels, pre-aggregated (37°C, 48 hr) or monomeric Aβ 1 μM anteluminal
Description: Bioengineered constructs were fabricated using a dynamic, semi-pulsatile flow bioreactor system. Tubular biodegradable scaffolds (length 1.5 cm and inner diameter 2 mm) were produced as described ([Robert et al., 2013a]; [Robert et al., 2017]) with minor modifications. Briefly, non-woven polyglycolic acid (PGA, Biomedical Structure, Warwick, RI) meshes (thickness: 1 mm and density: 70 mg/cc) were dip-coated with polycaprolactone (PCL) and polylactate (PLA) by dipping PGA mesh in a solution of 1.75% (w/w) PCL/PLA/tetrahydrofuran (THF) solution (Sigma-Aldrich, St. Louis, MO), shaped into tubes using heat, and externally coated with a 10% PCL/THF (w/w) solution. Scaffolds were sterilized by immersion in 70% ethanol for 30 min followed by three PBS washes and then immersion in advanced DMEM supplemented with 10% FBS for at least 12 hr. UCMFB were seeded at density of 2−3 × 10^6 cells/cm^2 on the inner surface of the scaffold using fibrin (fibrinogen 10 mg clottable protein/ml PBS and thrombin 100–10 mU/ml PBS) as a cell carrier that was added directly to the scaffold, then incubated under static conditions for a minimum of 3 days before exposure to dynamic flow. The flow of nutrient medium (Advanced DMEM supplemented with 10% FBS, 1% L-glutamine and 0.05% Pen/Strep) was directed through the lumen of the bioreactor circulation loop to mimic blood flow for a minimum of one week. Vascular intermediates were then seeded with HUVEC (1 × 10^6 cells/cm^2) and cultivated first in static conditions for a minimum of 5 days in EGM−2 supplemented as above. For bipartite vessels, after the static phase, vascular grafts were placed back in the bioreactor for 14 additional days with increasing medium flow to a final rate of 10 ml/min by the 10th day). For tripartite vessels, after the static phase after HUVEC addition, primary astrocytes were seeded (1 × 10^6 cells/cm^2) using fibrin as a cell carrier as above on the antelumen side of the tissue. After 5 min at RT, grafts were placed under flow conditions with EGM-2 supplemented as above in the circulation chamber and complete astrocyte medium in the tissue chamber for 14 additional days with increasing medium flow to 10 ml/min by the 10th day.
The HFIP was removed by evaporation overnight and stocks were stored at −20°C. On the day of the assay, soluble monomers were prepared by reconstituting the peptide film in DMSO to 5 mM, diluted further to 100 µM in RPMI without FBS. 100 μl of Aβ solution was injected in the tissue chamber containing 900 μl of DMEM (Gibco) without FBS to the desired concentration using a syringe under flow conditions. […] For luminal recovery, 100 μl circulating medium was collected at the indicated time.
All experiments were conducted under an approved clinical protocol (UBC Clinical Ethics Research Board H14-03357). Upon receipt of written informed consent, 100 ml of fasted blood was collected from normolipidemic healthy donors into vacutainer tubes containing EDTA. Plasma HDL (1.063–1.21 g/ml) was isolated by sequential potassium bromide gradient ultracentrifugation as described ([Robert et al., 2013b]). […] Total protein concentration was assessed using the BCA assay (Thermofisher Scientific). Recombinant apoE2 and apoE4 were commercially purchased and solubilized following the manufacture’s instructions (ABCAM, apoE2 ab55210, apoE3 ab123764 and apoE4 ab50243). […] ApoE concentrations were measured using ELISA as previously described ([Fan et al., 2016]). […]

[5] = tested on: NO synthase; test: NO measurement: conversion of L-3H-arginine to L-3H-citruline in tripartite vessels
Description: NO synthesis was measured as described ([Robert et al., 2013a]) using a commercial NOS activity assay kit (Caymenchemical, Ann Arbor, MI). Briefly, a 2–3 mm ring of vascular tissue was mechanically ground in 150 μl of ice cold homogenized buffer (25 mM Tris-Cl, pH7.4, 1 mM EDTA and 1 mM EGTA) and centrifuged 15 min at 4°C at 10,000 g. The supernatant was aliquoted and incubated in reaction buffer containing 25 mM Tris-Cl, pH7.4, 0.25 mM EDTA, 0.6 mM CaCl2, 1 mM NADP, 200 nM calmodulin, 3 µM tetrahydrobiopterin, 1 µM flavin adenine dinucleotide, 1 µM flavin adenine monoucleotide and 0.2 µCi L-^3H-arginine; PerkinElmer, Waltham, MA) in the presence of 10 nM acetylcholine (Ach), 0.2 mg/ml HDL or 1 mM L-NG-nitroarginine methyl ester (L-NAME). After 60 min at 37°C, the reaction was stopped by adding 400 μl of stop buffer ([…] HEPES, 5 mM EDTA, pH 5.5). The solution was loaded onto an ion exchange column equilibrated with stop buffer to separate L-^3H-citruline from L-^3H-arginine. Scintillation mix (Ultimate Gold, PerkinElmer) was added to the supernatant and counted using LS6500 β-counter (Beckman Coulter, Brea, CA). The percent citrulline formed was calculated as follows: % conversion = (cpm reaction-cpm background)/cpm total *100.

[6] = tested on: bioengineered bipartite vessels; test: Aβ transport from anteluminal tissue chamber to luminal circulation across bipartite vessels (ELISA); conditions: 1 μM monomers anteluminal, luminal medium sampled over 4 hr
Description: Bioengineered constructs were fabricated using a dynamic, semi-pulsatile flow bioreactor system. Tubular biodegradable scaffolds (length 1.5 cm and inner diameter 2 mm) were produced as described ([Robert et al., 2013a]; [Robert et al., 2017]) with minor modifications. Briefly, non-woven polyglycolic acid (PGA, Biomedical Structure, Warwick, RI) meshes (thickness: 1 mm and density: 70 mg/cc) were dip-coated with polycaprolactone (PCL) and polylactate (PLA) by dipping PGA mesh in a solution of 1.75% (w/w) PCL/PLA/tetrahydrofuran (THF) solution (Sigma-Aldrich, St. Louis, MO), shaped into tubes using heat, and externally coated with a 10% PCL/THF (w/w) solution. Scaffolds were sterilized by immersion in 70% ethanol for 30 min followed by three PBS washes and then immersion in advanced DMEM supplemented with 10% FBS for at least 12 hr. UCMFB were seeded at density of 2−3 × 10^6 cells/cm^2 on the inner surface of the scaffold using fibrin (fibrinogen 10 mg clottable protein/ml PBS and thrombin 100–10 mU/ml PBS) as a cell carrier that was added directly to the scaffold, then incubated under static conditions for a minimum of 3 days before exposure to dynamic flow. The flow of nutrient medium (Advanced DMEM supplemented with 10% FBS, 1% L-glutamine and 0.05% Pen/Strep) was directed through the lumen of the bioreactor circulation loop to mimic blood flow for a minimum of one week. […]

[7] = tested on: bioengineered bipartite vessels; test: Aβ fibrillization in bioengineered vessels (Thioflavin-S staining, Thioflavin-T quantification)

Cc1cc(-c2ccc(/N=N/c3ccc4c(S(=O)(=O)O)cc(S(=O)(=O)O)c(N)c4c3O)c(C)c2)ccc1/N=N/c1ccc2c(S(=O)(=O)O)cc(S(=O)(=O)O)c(N)c2c1O [Evans blue]
Evans blue penetration into tissue without EC ([1]; tissue prepared without EC): penetrated into tissue prepared without EC
Evans blue penetration into vessels with endothelium ([1]; vessels seeded with EC): excluded

O=C(O)Cc1cccc(OCCCN(Cc2cccc(C(F)(F)F)c2Cl)CC(c2ccccc2)c2ccccc2)c1 [GW3965]
effect on accumulation of Aβ40 within tripartite tissues after 24 hr ([2]; Aβ40 1 μM anteluminal): neither GW3965, HDL, nor both GW3965 and HDL affected accumulation
effect on accumulation of Aβ42 within tripartite tissues after 24 hr ([2]; Aβ42 1 μM anteluminal): neither GW3965, HDL, nor both GW3965 and HDL affected accumulation
secretion of native apoE into medium [3]: significantly stimulated the secretion of native apoE
effect on Aβ40 transport through tripartite vessels over 4 hr ([4]; Aβ40 1 μM anteluminal, GW3965 0.8 μM 72 hr, HDL 200 μg/ml luminal): neither GW3965 alone nor HDL alone modified the rate
effect on Aβ42 transport through tripartite vessels over 4 hr ([4]; Aβ42 1 μM anteluminal, GW3965 0.8 μM 72 hr, HDL 200 μg/ml luminal): neither GW3965 alone nor HDL alone modified the rate

COC(=O)[C@@H](N)CCCNC(N)=N[N+](=O)[O-] [L-NAME, L-NG-nitroarginine methyl ester]
NO production in the presence of NO synthase inhibitor ([5]; 1 mM L-NAME with Ach or HDL stimulation, 60 min): the conversion was blocked

CC(=O)OCC[N+](C)(C)C [acetylcholine]
NO production: conversion of L-3H-arginine to L-3H-citruline ([5]; 10 nM acetylcholine or 200 μg/ml HDL, 60 min at 37°C): significant increase

Aβ40 fibrils: Aβ40 incubated at 37°C for 48 hr after reconstitution in RPMI
transport of fibrils compared to monomers ([4]; over 4 hr): significantly slower transport

Aβ42 fibrils: Aβ42 incubated at 37°C for 48 hr after reconstitution in RPMI
transport of fibrils compared to monomers ([4]; over 4 hr): significantly slower transport

Aβ42: Recombinant Aβ42 peptide (California Peptide Research), soluble monomers
Aβ transport into circulating medium, bioengineered vessels versus scaffold-only controls [6]: transported at a slower rate
Aβ recovery into circulation medium, tripartite compared to bipartite vessels ([4]; 1 μM monomers anteluminal, over 4 hr): increased
beta-sheet formation in tissue lysates (Thioflavin-T) ([7]; 1 μM monomers anteluminal, RIPA lysate, 20 μM Thioflavin-T, ex 440 nm / em 490 nm): increasing signal over time
Aβ fibrillization in the bioengineered vessels (Thioflavin-S) ([7]; monomers 0, 0.1, 1.0 and 10 μM anteluminal, 48 hr, Thioflavin-S staining): dose-dependent fibrillization
